Results on seven molecules are retold here after article PMC6930638, “The Masked Polar Group Incorporation (MPGI) Strategy in Drug Design: Effects of Nitrogen Substitutions on Combretastatin and Isocombretastatin Tubulin Inhibitors” (Molecules, 2019).

Molecules are shown by their SMILES. Converted amounts (≈) assume the structure as drawn. Like-named read-outs stand apart in the source and are kept apart here.

The test system of data set [1] is Bovine brain microtubule protein (MTP). Details: method as in PMID 26092446. The conditions noted are these: comparison values in text; read-out: TPI IC50; cited from earlier work.
For data set [2], the system named is rat primary pancreatic cells. Description: Toxicity against rat primary pancreatic cells (MTT). The conditions noted are these: 7 h. The method, then:
The toxicity of the compounds against rat primary pancreatic cells was evaluated by the MTT protocol (Table 2). […] Sodium taurocholate (NaTc) was also used at high concentrations as a model of acute pancreatitis in vitro.
Rat primary pancreatic cells were isolated as previously described. Afterwards, pancreatic cells were resuspended in Na-HEPES solution (pH 7.4) containing 14 mM glucose, 1% essential amino acid mixture, 1% (w/v) BSA, 0.01% (w/v) STI, 0.5 mM CaCl2 and incubated (5% CO2, at 37 °C) for 7 h in the absence (non-treated control) or the presence of compounds at different concentrations. After the treatment, cells were incubated (5% CO2, at 37 °C) with 0.5 mg/mL MTT for 2 h and the formazan crystals were solubilized with DMSO (v/v). The optical density was read at 570 nm with a reference wavelength of 630 nm. Non-treated cell viability was set as 100%.

For data set [3], the system named is MCF-7 breast adenocarcinoma. Description: MTT cell antiproliferative assay, MCF-7. It is filed as cell-based. The conditions noted are these: Homo sapiens, MCF7, 72 h.
The subject of data set [4] is HeLa cervix epithelioid carcinoma. Description: MTT cell antiproliferative assay, HeLa. It counts as cell-based. The conditions noted are these: Homo sapiens, 72 h. On the technique in general: Formazan colour is commonly taken as a measure of viable cells.
The nature of data set [5]: Aqueous solubility determination (shake flask, UV). It is filed as physicochemical. The conditions noted are these: phosphate buffer, pH 7, aqueous buffer, thermodynamic from solid, phosphate buffer pH 7.0, 48 h stirring, filtered, UV; read-out: Solub. The method, then:
One of the expected effects of introducing nitrogen substitutions on combretastatin and isocombretastatin analogues, is an increase in aqueous solubility. Solubility was spectrophotometrically determined in phosphate buffer at pH 7. UV absorbance of soluble compounds was measured after shaking and microfiltration. […] In addition, aqueous solubilities of the corresponding ammonium salts are over 1 mg/mL.
This great improvement is probably due to the symmetry reduction, combined with an increased polarity for 2g.
Compounds were stirred in a solution of phosphate buffer at pH 7.0 (1–2 mg of compound in 300 µL of buffer) during 48 h. After that, the samples were filtered over a […] filter to discard the insoluble residues. In order to determine the maximum wavelength of absorbance for each compound, a scan between 270 and 400 nm was performed. Once the wavelength was selected, a calibration line was performed and the concentration of the stirred and filtered samples was measured.

For data set [6], the system named is HeLa, HT-29 and MCF-7 human tumor cell lines. Description: Antiproliferative activity over the three human tumor cell lines (MTT). It is filed as cell-based. The conditions noted are these: Homo sapiens, range over the cell lines, Table S1; read-out: Cytotoxicity range (range of antiproliferative IC50 values).
Data set [7] concerns Bovine brain microtubule protein (MTP). Description: Tubulin polymerization inhibition assay (turbidimetry). It is filed as biochemical. The conditions noted are these: 1.5 mg/mL MTP; IC50 calculated only if more than 50% inhibition at 20 µM; read-out: TPI IC50.
Data set [8] has as its system HT-29 colon adenocarcinoma. Description: MTT cell antiproliferative assay, HT-29 (without or with verapamil). It is filed as cell-based, human. The conditions noted are these: for improvement of HT-29 IC50 after verapamil treatment: 10 µM verapamil; for IC50: Homo sapiens, HT-29, MTT, 72 h. On the procedure:
The in vitro antiproliferative activity of the synthesized compounds was evaluated by a colorimetric reaction, using the MTT reagent. They were tested against three different human tumor cell lines: HeLa cervix epithelioid carcinoma, HT-29 colon adenocarcinoma, and MCF-7 breast adenocarcinoma. […] Moving the alkylamino substituent from a para to a meta position with respect to the bridge results in potency reduction, except for the phenstatin analogue 1f. However, the introduction of a nitrogen atom to form 2-dimethylaminopyridine derivatives entails a loss of activity, both for phenstatin analogues (1b, 2b), while for isocombretastatins, it only involves a 2–3 times potency decrease (3b). For combretastatins, it implies an improvement in the cytotoxicity values down to tenths of nanomolar (8b). […] On the other hand, the best 2-dimethylaminopyridine was combretastatin 8b. All ammonium salts derivatives were not cytotoxic at micromolar concentrations.
As observed in Table 1, there are no significant changes in the IC50 values for most compounds, except for combretastatins 8a and 8i.
Acquired resistance to antitumor drugs is one of the more important problems of chemotherapy, also affecting tubulin-targeting drugs. In order to ascertain the impact of multidrug resistance phenotypes on the action of the compounds, we have measured the cell proliferation inhibitory activity of HT-29 cells in the presence of verapamil, a known P-glycoprotein 1/multidrug resistance protein 1 (MDR1) inhibitor at a concentration of 10 µM, not affecting cell proliferation. […] Except for the combretastatin analogues 8a and 8i, the affected drugs are all pyridine drugs.
HeLa (human cervical carcinoma) and MCF-7 (human breast carcinoma) cell lines were cultured in Dulbecco’s Modified Eagles Medium (DMEM) supplemented with 2 mM L-glutamine (Lonza-Cambrex, Karlskoga, Sweden), 10% (v/v) heat inactivated fetal bovine serum (HIFBS) (Lonza-Cambrex) and 100 μg/mL streptomycin-100 IU/mL penicillin (Lonza-Cambrex) at 37 °C in humidified 95% air and 5% CO2. HT-29 (human colon carcinoma) cells were cultured at 37 °C in complete RPMI 1640 medium containing 2 mM L-glutamine, 10% (v/v) HIFBS and 100 μg/mL streptomycin-100 IU/mL penicillin in humidified 95% air and 5% CO2 atmosphere.
The effect of the different compounds on the proliferation of human cell lines was determined by using the MTT (3-[4,5-dimethylthiazol-2-yl]-2,5-diphenyltetrazolium bromide) reagent (MTT Thiazolyl Blue Tetrazolium Bromide, Sigma-Aldrich, St. Louis, MO, USA) dissolved in PBS 5 mg/mL. Cell viability was evaluated seeding 100 µL of cells in exponential growth phase with appropriate cell line concentration (1.5 × 10^4 HeLa and MCF-7 cells/mL and 3 × 10^4 HT-29 cells/mL) in complete medium in 96-well plates at 37 °C and 5% CO2. After 24 h incubation to allow cells to attach to the plates the ligands were added at different concentrations from 10^−5 to 10^−9 M. The effect on the proliferation was evaluated 72 h post-treatment by adding the MTT reagent (10 µL/well) to a final concentration of 0.5 mg/mL and the plate was further incubated for another 3 h. After this period, the supernatant was removed, the MTT violet crystals formed on the bottom of each well were dissolved in DMSO (100 µL/well) and subsequently, the absorbance of the color complex was read at 570 nm using a multi-well plate reader. Compounds were dissolved in dimethyl sulfoxide (DMSO) and the final solvent concentrations never exceeded 0.5% (v/v). The control wells included treated cells with 0.5% (v/v) DMSO and the positive control. Measurements were performed in triplicate, and each experiment was repeated three times. […] Nonlinear curves fitting the experimental data were carried out for each compound.

Consider `COc1ccc(/C=C\c2cc(OC)c(OC)c(OC)c2)cc1O` [CA-4, Combretastatin A4, reference compound], for which the IC50 in data set [1] was 1000 to 4000 nM.
With `C[C@H](CCC(=O)NCCS(=O)(=O)O)[C@H]1CC[C@H]2[C@@H]3[C@H](O)C[C@@H]4C[C@H](O)CC[C@]4(C)[C@H]3C[C@H](O)[C@]12C` [NaTc, Sodium taurocholate, reference compound], the “live cells with respect to the non-treated control (means ± S.E.M.)” value in data set [2] (0.50%) is 24.83 ± 11.86%.
Consider `C=C(c1ccnc(N2CCCC2)c1)c1cc(OC)c(OC)c(OC)c1` [Compound 3h, 2-(Pyrrolidin-1-yl)-4-(1-(3,4,5-trimethoxyphenyl)vinyl)pyridine], for which the IC50 in data set [3] is 317 nM; in data set [4], 257 nM; in data set [6] it was 230 to 477 nM; in data set [7] it was above 20000 nM; in data set [8] it was 477 nM. In addition, the solubility at 48 h in data set [5] was determined as 62 µg/mL (≈ 182 µM). For the same molecule, the “improvement of HT-29 IC50 after verapamil treatment” value in data set [8] is above 2 fold.
On to `CC(=O)O[C@H]1C[C@H](O[C@H]2[C@@H](O)C[C@H](O[C@H]3[C@@H](O)C[C@H](O[C@H]4CC[C@@]5(C)[C@H](CC[C@@H]6[C@@H]5C[C@@H](O)[C@]5(C)[C@@H](C7=CC(=O)OC7)CC[C@]65O)C4)O[C@@H]3C)O[C@@H]2C)O[C@H](C)[C@H]1O` [Acetyldigoxin, acetyl-digoxin, reference compound], for which the “live cells with respect to the non-treated control (means ± S.E.M.)” value in data set [2] (0.05 µM) is recorded as 84.41 ± 9.64%.
In the case of `COc1cc([C@@H]2c3cc4c(cc3[C@@H](O[C@@H]3O[C@@H]5CO[C@@H](C)O[C@H]5[C@H](O)[C@H]3O)[C@H]3COC(=O)[C@H]23)OCO4)cc(OC)c1O` [Etoposide, etoposide, reference compound], the “live cells with respect to the non-treated control (means ± S.E.M.)” value in data set [2] (rat, 0.05 µM, pH 7.4) came to 89.87 ± 11.80%.
For `COc1cc(C=Cc2ccc(N(C)C)cc2)cc(OC)c1OC` [Compound 8a, N,N-dimethyl-4-(3,4,5-trimethoxystyryl)aniline], the IC50 in data set [3] is 273 nM; in data set [4], 208 nM; in data set [6], 102 to 503 nM; in data set [7], 3400 nM; in data set [1] it was 3400 nM; in data set [8] it was 503 nM. Further, the “improvement of HT-29 IC50 after verapamil treatment” value in data set [8] is above 2 fold.
Consider `COc1cc(C(=O)c2ccnc(N(C)C)c2)cc(OC)c1OC` [Compound 1g, (2-(Dimethylamino)pyridin-4-yl)(3,4,5-trimethoxyphenyl)methanone], for which the IC50 in data set [3] is 223 nM; in data set [4], 387 nM; in data set [6], 223 to 387 nM; in data set [7], above 20000 nM; in data set [8], 313 nM. Besides, the solubility at 48 h in data set [5] turned out to be 33.8 µg/mL (≈ 107 µM).

What is called IC50 is the midpoint of a concentration-inhibition curve.
